In patent US11078193B2 (priority 2014, dated 2021):

How the values were obtained:
HBV = test: anti HBV activity, HepG2.117 inducibly HBV producing cell line (Tet-off), intracellular HBV DNA by realtime PCR; assay type: cell-based; details: Hepatitis B virus, 72 h, HepG2.117 cells, 3 days of treatment
[1] = Cytotoxicity, HepG2 cells, Resazurin assay; assay type: cell-based; details: human
[2] = ATP based toxicity assay (ATPlite), HepG2 cell line; details: human, HepG2 cells, ATPlite (ATP levels)
Method: Alternatively, cytotoxicity was determined via an ATP-assay: The ATPlite kit from Perkin Elmer was used to assess compound cytotoxicity on the HepG2 cell line by determination of the ATP (adenosine triphosphate) levels. ATP is a marker for functional integrity and cell viability, because it is present in all metabolically active cells and any form of cell injury will result in a rapid decline in cellular ATP concentration. After compound incubation, 1 volume of ATPlite solution was added to the cells and the luminescence signal was measured.

Structure (SMILES)	EC50 (HBV) [µM]	CC50 at 4 days [1] [µM]	CC50 at 4 days [2] [µM]
Cn1cc(S(=O)(=O)NC2(C)CC(F)(F)C2)c(F)c1C(=O)Nc1ccnc(C(F)F)c1 [Compound 83, 4-[(3,3-difluoro-1-methyl-cyclobutyl)sulfamoyl]-N-[2-(difluoromethyl)-4-pyridyl]-3-fluoro-1-methyl-pyrrole-2-carboxamide]	0.01	> 25	> 25
Cc1cc(NC(=O)c2c(F)c(S(=O)(=O)NC3(C(F)(F)F)CCC3)cn2C)cc(F)n1 [Compound 172, 3-fluoro-N-(2-fluoro-6-methyl-4-pyridyl)-1-methyl-4-[[1-(trifluoromethyl)cyclobutyl]sulfamoyl]pyrrole-2-carboxamide]	0.01	> 25	> 25
Cn1cc(S(=O)(=O)NC2(C(F)(F)F)CC2)c(F)c1C(=O)Nc1ccnc(Br)c1F [Compound 203, N-(2-bromo-3-fluoro-4-pyridyl)-3-fluoro-1-methyl-4-[[1-(trifluoromethyl)cyclopropyl]sulfamoyl]pyrrole-2-carboxamide]	0.008		> 25
C[C@@H](NS(=O)(=O)c1cn(C)c(C(=O)Nc2cc(F)nc(Cl)c2)c1F)C(F)(F)F [Compound 215, N-(2-chloro-6-fluoro-4-pyridyl)-3-fluoro-1-methyl-4-[[(1R)-2,2,2-trifluoro-1-methyl-ethyl]sulfamoyl]pyrrole-2-carboxamide]	0.006		> 25
Cn1cc(S(=O)(=O)NC2(C(F)(F)F)CC2)c(F)c1C(=O)Nc1cc(F)nc(F)c1 [Compound 193, N-(2,6-difluoro-4-pyridyl)-3-fluoro-1-methyl-4-[[1-(trifluoromethyl)cyclopropyl]sulfamoyl]pyrrole-2-carboxamide]	0.009		> 25
Cc1c(S(=O)(=O)N[C@H](C)C(F)(F)F)c(F)c(C(=O)Nc2ccnc(C(F)F)c2F)n1C [Compound 207, N-[2-(difluoromethyl)-3-fluoro-4-pyridyl]-3-fluoro-1,5-dimethyl-4-[[(1R)-2,2,2-trifluoro-1-methyl-ethyl]sulfamoyl]pyrrole-2-carboxamide]	0.01		> 25
C[C@@H](NS(=O)(=O)c1cn(C)c(C(=O)Nc2ccnc(Br)c2)c1Cl)C(F)(F)F [Compound 106, N-(2-bromo-4-pyridyl)-3-chloro-1-methyl-4-[[(1R)-2,2,2-trifluoro-1-methyl-ethyl]sulfamoyl]pyrrole-2-carboxamide]	0.02	> 25	> 25
Cn1cc(S(=O)(=O)NC2(C(F)(F)F)COC2)c(F)c1C(=O)Nc1ccnc(Cl)c1F [Compound 212, N-(2-chloro-3-fluoro-4-pyridyl)-3-fluoro-1-methyl-4-[[3-(trifluoromethyl)oxetan-3-yl]sulfamoyl]pyrrole-2-carboxamide]	0.06		> 25
Cn1cc(S(=O)(=O)NC2(C(F)(F)F)CC2)c(F)c1C(=O)Nc1ccnc(C(F)F)c1F [Compound 195, N-[2-(difluoromethyl)-3-fluoro-4-pyridyl]-3-fluoro-1-methyl-4-[[1-(trifluoromethyl)cyclopropyl]sulfamoyl]pyrrole-2-carboxamide]	0.02		> 25
Cn1cc(S(=O)(=O)NC2(C)CC(F)(F)C2)c(F)c1C(=O)Nc1cc(Cl)nc(Cl)c1 [Compound 136, N-(2,6-dichloro-4-pyridyl)-4-[(3,3-difluoro-1-methyl-cyclobutyl)sulfamoyl]-3-fluoro-1-methyl-pyrrole-2-carboxamide]	0.02		9.5
Cc1cc(NC(=O)c2c(F)c(S(=O)(=O)N[C@H](C)C(F)(F)F)cn2C)cc(Cl)n1 [Compound 213, N-(2-chloro-6-methyl-4-pyridyl)-3-fluoro-1-methyl-4-[[(1R)-2,2,2-trifluoro-1-methyl-ethyl]sulfamoyl]pyrrole-2-carboxamide]	0.05		> 25
Cn1cc(S(=O)(=O)NC2CCC2(F)F)c(F)c1C(=O)Nc1ccnc(Cl)c1 (stereo not shown) [Compound 174, N-(2-chloro-4-pyridyl)-4-[(2,2-difluorocyclobutyl)sulfamoyl]-3-fluoro-1-methyl-pyrrole-2-carboxamide]	0.11		> 25
Cn1cc(S(=O)(=O)NC2CCN(CC(F)(F)F)CC2)c(F)c1C(=O)Nc1ccnc(Cl)c1 [Compound 217, N-(2-chloro-4-pyridyl)-3-fluoro-1-methyl-4-[[1-(2,2,2-trifluoroethyl)-4-piperidyl]sulfamoyl]pyrrole-2-carboxamide]	0.46		> 25
Cn1cc(S(=O)(=O)NC(C)(C)C(F)(F)F)c(F)c1C(=O)Nc1ccnc(C(F)F)c1 [Compound 190, N-[2-(difluoromethyl)-4-pyridyl]-3-fluoro-1-methyl-4-[(2,2,2-trifluoro-1,1-dimethyl-ethyl)sulfamoyl]pyrrole-2-carboxamide]	0.05		> 25
Cn1cc(S(=O)(=O)NC(C)(C)C(F)(F)F)c(F)c1C(=O)Nc1cc(F)nc(F)c1 [Compound 189, N-(2,6-difluoro-4-pyridyl)-3-fluoro-1-methyl-4-[(2,2,2-trifluoro-1,1-dimethyl-ethyl)sulfamoyl]pyrrole-2-carboxamide]	0.06		> 25
C[C@@H](NS(=O)(=O)c1cn(C)c(C(=O)Nc2ccnc(C(F)F)c2F)c1F)C(F)(F)F [Compound 202, N-[2-(difluoromethyl)-3-fluoro-4-pyridyl]-3-fluoro-1-methyl-4-[[(1R)-2,2,2-trifluoro-1-methyl-ethyl]sulfamoyl]pyrrole-2-carboxamide]	0.008		> 25
Cn1cc(S(=O)(=O)NC2(C(F)(F)F)CC2)c(F)c1C(=O)Nc1ccnc(Br)c1 [Compound 194, N-(2-bromo-4-pyridyl)-3-fluoro-1-methyl-4-[[1-(trifluoromethyl)cyclopropyl]sulfamoyl]pyrrole-2-carboxamide]	0.02		> 25
Cn1cc(S(=O)(=O)NC2(C(F)(F)F)COC2)c(F)c1C(=O)Nc1cc(F)nc(F)c1 [Compound 211]	0.05		> 25
Cn1cc(S(=O)(=O)NC2(C(F)(F)F)COC2)c(F)c1C(=O)Nc1ccnc(C(F)F)c1 [Compound 210]	0.07		> 25
C[C@@H](NS(=O)(=O)c1cn(C)c(C(=O)Nc2ccnc(CF)c2)c1Cl)C(F)(F)F [Compound 145, 3-chloro-N-[2-(fluoromethyl)-4-pyridyl]-1-methyl-4-[[(1R)-2,2,2-trifluoro-1-methyl-ethyl]sulfamoyl]pyrrole-2-carboxamide]	0.08		> 25
Cn1cc(S(=O)(=O)NC2(C(F)(F)F)COC2)c(F)c1C(=O)Nc1ccnc(Cl)c1 [Compound 198]	0.09		> 25
Cn1cc(S(=O)(=O)NC(C)(C)C(F)(F)F)c(F)c1C(=O)Nc1ccnc(C(F)F)c1F [Compound 201, N-[2-(difluoromethyl)-3-fluoro-4-pyridyl]-3-fluoro-1-methyl-4-[(2,2,2-trifluoro-1,1-dimethyl-ethyl)sulfamoyl]pyrrole-2-carboxamide]	0.03		> 25
Cc1c(S(=O)(=O)N[C@H](C)C(F)(F)F)c(F)c(C(=O)Nc2ccnc(Br)c2)n1C [Compound 205, N-(2-bromo-4-pyridyl)-3-fluoro-1,5-dimethyl-[[(1R)-2,2,2-trifluoro-1-methyl-ethyl]sulfamoyl]pyrrole-2-carboxamide]	0.02		> 25
C[C@@H](NS(=O)(=O)c1cn(C)c(C(=O)Nc2cc(F)nc(Br)c2)c1F)C(F)(F)F [Compound 216, N-(2-bromo-6-fluoro-4-pyridyl)-3-fluoro-1-methyl-[[(1R)-2,2,2-trifluoro-1-methyl-ethyl]sulfamoyl]pyrrole-2-carboxamide]	0.01		> 25
Cn1cc(S(=O)(=O)NC2(C(F)(F)F)CC2)c(F)c1C(=O)Nc1ccnc(C#N)c1 [Compound 192, N-(2-cyano-4-pyridyl)-3-fluoro-1-methyl-4-[[1-(trifluoromethyl)cyclopropyl]sulfamoyl]pyrrole-2-carboxamide]	0.02		> 25
Cn1cc(S(=O)(=O)NC2(C)CC(F)(F)C2)c(F)c1C(=O)Nc1ccnc(C#N)c1F [Compound 197, N-(2-cyano-3-fluoro-4-pyridyl)-4-[(3,3-difluoro-1-methyl-cyclobutyl)sulfamoyl]-3-fluoro-1-methyl-pyrrole-2-carboxamide]	0.01		> 25
Cc1nc(NC(=O)c2c(F)c(S(=O)(=O)N[C@H](C)C(F)(F)F)cn2C)ccc1F [Compound 214, 3-fluoro-N-(5-fluoro-6-methyl-2-pyridyl)-1-methyl-4-[[(1R)-2,2,2-trifluoro-1-methyl-ethyl]sulfamoyl]pyrrole-2-carboxamide]	0.08		> 25
C[C@@H](NS(=O)(=O)c1cn(C)c(C(=O)Nc2ccnc(C(F)F)c2F)c1F)C(C)(F)F [Compound 204, N-[2-(difluoromethyl)-3-fluoro-4-pyridyl]-4-[[(1R)-2,2-difluoro-1-methyl-propyl]sulfamoyl]-3-fluoro-1-methyl-pyrrole-2-carboxamide]	0.01		> 25
Cn1cc(S(=O)(=O)NC2(C)CC(F)(F)C2)c(Cl)c1C(=O)Nc1ccnc(C#N)c1F [Compound 162, 3-chloro-N-(2-cyano-3-fluoro-4-pyridyl)-4-[(3,3-difluoro-1-methyl-cyclobutyl)sulfamoyl]-1-methyl-pyrrole-2-carboxamide]	0.02		> 25
